What was measured:
[1] = target: T1, Androgen receptor (Homo sapiens, UniProt P10275)
T1 sequence (P10275 whole entry): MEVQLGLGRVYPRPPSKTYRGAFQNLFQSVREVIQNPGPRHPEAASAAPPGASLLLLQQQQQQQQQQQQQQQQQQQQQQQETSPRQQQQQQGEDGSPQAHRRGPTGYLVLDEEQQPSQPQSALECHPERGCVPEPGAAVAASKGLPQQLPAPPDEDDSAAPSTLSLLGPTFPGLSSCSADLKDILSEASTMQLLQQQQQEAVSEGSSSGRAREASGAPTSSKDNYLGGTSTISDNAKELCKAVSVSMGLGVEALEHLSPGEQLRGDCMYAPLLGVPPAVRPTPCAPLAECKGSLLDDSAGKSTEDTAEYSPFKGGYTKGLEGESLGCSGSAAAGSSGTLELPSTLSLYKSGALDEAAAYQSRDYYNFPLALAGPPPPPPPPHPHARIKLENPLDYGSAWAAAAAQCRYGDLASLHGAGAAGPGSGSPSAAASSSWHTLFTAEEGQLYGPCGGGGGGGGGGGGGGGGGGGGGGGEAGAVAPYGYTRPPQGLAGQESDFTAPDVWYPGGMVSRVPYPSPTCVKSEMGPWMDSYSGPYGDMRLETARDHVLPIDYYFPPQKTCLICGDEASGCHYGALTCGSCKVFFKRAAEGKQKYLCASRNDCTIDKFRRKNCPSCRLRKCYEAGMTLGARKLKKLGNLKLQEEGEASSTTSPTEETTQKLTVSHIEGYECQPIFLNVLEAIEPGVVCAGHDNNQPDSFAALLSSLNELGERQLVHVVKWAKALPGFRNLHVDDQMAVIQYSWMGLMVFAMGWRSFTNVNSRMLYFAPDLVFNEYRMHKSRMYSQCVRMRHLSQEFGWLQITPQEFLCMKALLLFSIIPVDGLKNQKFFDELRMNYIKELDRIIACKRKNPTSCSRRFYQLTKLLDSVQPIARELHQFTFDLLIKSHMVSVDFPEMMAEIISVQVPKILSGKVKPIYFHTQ

[2] = target: Gamma-aminobutyric acid receptor subunit alpha-1 (Rattus norvegicus, UniProt P62813); assay type: functional
[3] = target: T2, Type-1 angiotensin II receptor (Homo sapiens, UniProt P30556)
T2 sequence (P30556 whole entry): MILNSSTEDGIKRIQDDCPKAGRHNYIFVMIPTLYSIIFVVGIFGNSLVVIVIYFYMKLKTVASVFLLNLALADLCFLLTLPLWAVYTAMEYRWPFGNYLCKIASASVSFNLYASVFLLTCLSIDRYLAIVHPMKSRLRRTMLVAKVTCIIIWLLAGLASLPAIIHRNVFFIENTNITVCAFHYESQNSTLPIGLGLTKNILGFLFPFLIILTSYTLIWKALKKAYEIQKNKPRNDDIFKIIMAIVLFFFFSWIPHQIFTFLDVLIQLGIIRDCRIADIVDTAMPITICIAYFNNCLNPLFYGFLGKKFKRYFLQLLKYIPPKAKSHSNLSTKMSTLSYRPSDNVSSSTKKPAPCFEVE

[4] = target: T3, Prostaglandin G/H synthase 1 (Rattus norvegicus, UniProt Q63921); assay type: functional
T3 sequence (Q63921 whole entry): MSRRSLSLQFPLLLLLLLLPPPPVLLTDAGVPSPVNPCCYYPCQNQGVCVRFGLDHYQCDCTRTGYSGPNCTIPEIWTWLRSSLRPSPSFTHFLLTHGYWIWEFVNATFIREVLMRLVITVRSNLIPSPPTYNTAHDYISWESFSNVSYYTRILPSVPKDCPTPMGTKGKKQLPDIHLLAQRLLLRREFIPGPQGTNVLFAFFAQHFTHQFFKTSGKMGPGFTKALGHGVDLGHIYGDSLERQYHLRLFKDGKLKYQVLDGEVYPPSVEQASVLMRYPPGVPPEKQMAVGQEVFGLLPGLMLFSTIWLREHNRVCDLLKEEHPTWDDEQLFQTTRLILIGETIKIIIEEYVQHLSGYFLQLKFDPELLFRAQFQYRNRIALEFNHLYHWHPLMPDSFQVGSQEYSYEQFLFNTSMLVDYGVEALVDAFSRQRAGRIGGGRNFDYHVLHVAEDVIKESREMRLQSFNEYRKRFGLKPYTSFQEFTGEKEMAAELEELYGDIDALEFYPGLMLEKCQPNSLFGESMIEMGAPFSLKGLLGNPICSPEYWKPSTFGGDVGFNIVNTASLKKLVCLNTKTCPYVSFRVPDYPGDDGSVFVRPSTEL

[5] = target: Motilin receptor (Homo sapiens, UniProt O43193)
[6] = target: D(3) dopamine receptor (Homo sapiens, UniProt P35462)
[7] = target: T4, Alpha-2A adrenergic receptor (Homo sapiens, UniProt P08913); assay type: functional, cell-based
T4 sequence (P08913 whole entry): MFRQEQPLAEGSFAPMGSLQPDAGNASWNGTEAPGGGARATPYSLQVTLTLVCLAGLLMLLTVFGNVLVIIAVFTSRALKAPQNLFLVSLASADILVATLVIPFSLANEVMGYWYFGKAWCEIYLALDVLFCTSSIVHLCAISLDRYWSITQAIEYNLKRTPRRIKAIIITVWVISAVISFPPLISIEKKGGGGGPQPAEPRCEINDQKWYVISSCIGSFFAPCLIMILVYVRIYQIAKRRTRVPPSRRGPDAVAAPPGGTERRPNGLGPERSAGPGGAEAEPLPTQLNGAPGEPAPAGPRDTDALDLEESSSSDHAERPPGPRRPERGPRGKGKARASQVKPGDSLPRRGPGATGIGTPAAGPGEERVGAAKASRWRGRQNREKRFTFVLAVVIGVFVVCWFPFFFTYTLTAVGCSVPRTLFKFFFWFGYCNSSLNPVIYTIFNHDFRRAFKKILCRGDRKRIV

[8] = target: T4, Alpha-2A adrenergic receptor; assay type: functional, cell-based; remark: listed apart in the source
[9] = target: 5-hydroxytryptamine receptor 2B (Homo sapiens, UniProt P41595); assay type: functional, cell-based
Also: assay procedure not described here.

Sequence of Gamma-aminobutyric acid receptor subunit alpha-1 (P62813 whole entry): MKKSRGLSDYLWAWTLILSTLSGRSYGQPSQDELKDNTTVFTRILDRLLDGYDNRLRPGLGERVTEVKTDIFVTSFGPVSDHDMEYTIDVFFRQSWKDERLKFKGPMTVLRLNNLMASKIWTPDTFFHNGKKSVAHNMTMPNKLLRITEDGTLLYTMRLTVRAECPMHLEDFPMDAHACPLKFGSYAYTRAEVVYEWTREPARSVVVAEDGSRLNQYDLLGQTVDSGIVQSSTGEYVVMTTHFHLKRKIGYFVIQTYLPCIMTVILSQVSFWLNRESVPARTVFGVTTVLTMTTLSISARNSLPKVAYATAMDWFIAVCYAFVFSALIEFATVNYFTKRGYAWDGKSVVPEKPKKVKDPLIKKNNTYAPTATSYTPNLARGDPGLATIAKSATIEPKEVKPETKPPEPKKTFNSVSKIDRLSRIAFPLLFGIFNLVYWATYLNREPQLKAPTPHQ
Sequence of D(3) dopamine receptor (P35462 whole entry): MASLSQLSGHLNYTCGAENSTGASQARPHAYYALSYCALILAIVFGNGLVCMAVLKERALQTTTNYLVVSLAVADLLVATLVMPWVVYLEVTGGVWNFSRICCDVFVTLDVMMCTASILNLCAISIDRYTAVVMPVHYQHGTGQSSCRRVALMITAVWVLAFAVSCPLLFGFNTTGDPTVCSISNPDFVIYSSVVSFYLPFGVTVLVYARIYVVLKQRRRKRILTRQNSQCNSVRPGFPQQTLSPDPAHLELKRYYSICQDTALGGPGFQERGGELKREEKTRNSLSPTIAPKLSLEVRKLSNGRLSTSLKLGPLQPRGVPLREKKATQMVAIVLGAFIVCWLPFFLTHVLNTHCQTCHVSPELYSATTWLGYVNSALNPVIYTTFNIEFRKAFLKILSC
Sequence of Motilin receptor (O43193 whole entry): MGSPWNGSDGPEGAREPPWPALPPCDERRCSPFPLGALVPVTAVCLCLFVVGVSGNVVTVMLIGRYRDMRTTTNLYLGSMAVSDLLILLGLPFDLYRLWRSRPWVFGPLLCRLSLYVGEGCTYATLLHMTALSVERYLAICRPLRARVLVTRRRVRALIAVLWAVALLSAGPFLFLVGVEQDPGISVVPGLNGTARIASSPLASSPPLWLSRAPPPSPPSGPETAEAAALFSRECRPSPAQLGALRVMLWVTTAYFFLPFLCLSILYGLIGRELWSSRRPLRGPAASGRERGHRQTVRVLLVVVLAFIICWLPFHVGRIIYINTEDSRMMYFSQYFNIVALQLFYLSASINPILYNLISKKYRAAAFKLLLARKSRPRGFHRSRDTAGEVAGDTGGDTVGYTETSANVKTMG
Sequence of 5-hydroxytryptamine receptor 2B (P41595 whole entry): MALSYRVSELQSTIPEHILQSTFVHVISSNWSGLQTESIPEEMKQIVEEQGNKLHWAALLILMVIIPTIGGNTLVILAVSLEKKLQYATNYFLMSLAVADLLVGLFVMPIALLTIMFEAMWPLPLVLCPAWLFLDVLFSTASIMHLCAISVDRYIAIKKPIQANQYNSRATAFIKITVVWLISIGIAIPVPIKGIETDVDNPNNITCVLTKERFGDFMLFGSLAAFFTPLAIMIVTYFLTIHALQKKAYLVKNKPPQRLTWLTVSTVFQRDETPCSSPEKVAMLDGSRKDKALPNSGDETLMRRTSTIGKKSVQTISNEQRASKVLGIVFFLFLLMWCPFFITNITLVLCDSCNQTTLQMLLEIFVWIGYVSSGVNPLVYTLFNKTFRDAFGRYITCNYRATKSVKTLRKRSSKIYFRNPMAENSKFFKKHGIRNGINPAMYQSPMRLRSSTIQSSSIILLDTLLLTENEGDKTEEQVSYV

SMILES	AC50 [1] [µM]	further results
CCCCCCCC(=O)N[C@H](CN1CCCC1)[C@H](O)c1ccc2c(c1)OCCO2	> 30	–
C[C@]1(COc2ccc(N3CCC(Oc4ccc(OC(F)(F)F)cc4)CC3)cc2)Cn2cc([N+](=O)[O-])nc2O1	> 30	AC50 [2]: > 10 µM; AC50 [3]: > 30 µM; AC50 [4]: > 30 µM; AC50 [5]: > 10 µM
CC(=O)OC(C)OC(=O)C(C)c1ccc(-c2ccccc2)c(F)c1 (configuration not stated)	> 30	–
C[C@H](N)C(=O)O [ALANINE]	> 30	–
O=C(Nc1nc(-c2cc(Cl)cs2)c(N2CCN(C3CCCCC3)CC2)s1)c1cnc(N2CCC(C(=O)O)CC2)c(Cl)c1 [AVATROMBOPAG]	> 30	AC50 [2]: > 10 µM; AC50 [3]: > 10 µM; AC50 [6]: > 10 µM; AC50 [5]: > 10 µM
COC(=O)C1=C(C)NC(C)=C(C(=O)O[C@H]2CCN(Cc3ccccc3)C2)[C@H]1c1cccc([N+](=O)[O-])c1 [BARNIDIPINE]	> 30	–
Cc1nnc(SCC2=C(C(=O)O)N3C(=O)[C@@H](NC(=O)Cn4cc(Cl)c(=O)c(Cl)c4)[C@H]3SC2)s1 [CEFAZEDONE]	> 30	–
CCC[C@@H]1C[C@@H](C(=O)N[C@@H]([C@H]2O[C@H](SC)[C@H](OP(=O)(O)O)[C@@H](O)[C@H]2O)[C@H](C)Cl)N(C)C1 [CLINDAMYCIN PHOSPHATE]	> 30	–
Oc1c(I)cc(Cl)c2cccnc12 [CLIOQUINOL]	> 30	AC50 [2]: > 30 µM; AC50 [7]: > 30 µM; AC50 [8]: > 30 µM; AC50 [9]: > 30 µM; AC50 [6]: > 30 µM
Nc1ccncc1 [DALFAMPRIDINE]	> 30	–
Cc1onc(-c2c(Cl)cccc2Cl)c1C(=O)N[C@@H]1C(=O)N2[C@@H]1SC(C)(C)[C@@H]2C(=O)O [DICLOXACILLIN]	> 30	–
C[C@H]1O[C@@H](O[C@H]2[C@@H](O)C[C@H](O[C@H]3[C@@H](O)C[C@H](O[C@H]4CC[C@@]5(C)[C@H](CC[C@@H]6[C@@H]5CC[C@]5(C)[C@@H](C7=CC(=O)OC7)CC[C@]65O)C4)O[C@@H]3C)O[C@@H]2C)C[C@H](O)[C@@H]1O [DIGITOXIN]	> 30	–
OC(CCCN1CCCCC1)(c1ccccc1)c1ccccc1 [DIPHENIDOL]	> 30	–
C[C@@H](O)[C@H]1C(=O)N2C(C(=O)O)=C([C@H]3CCCO3)S[C@H]12 [FAROPENEM]	> 30	–
COCCOc1cnc(NS(=O)(=O)c2ccccc2)nc1 [GLYMIDINE]	> 30	–
CCC(=O)O[C@]1(C(=O)COC(C)=O)CC[C@H]2[C@@H]3CCC4=CC(=O)CC[C@]4(C)[C@H]3[C@@H](O)C[C@@]21C [HYDROCORTISONE ACEPONATE]	0.314	–

SMILES	AC50 [1] [µM]	further results
NC(=O)NCCC[C@H](N)C(=O)O [L-CITRULLINE]	> 30	–
CC(=O)O[C@H]1C[C@H](O[C@H]2[C@@H](O)C[C@H](O[C@H]3[C@@H](O)C[C@H](O[C@H]4CC[C@@]5(C)[C@H](CC[C@@H]6[C@@H]5C[C@@H](O)[C@]5(C)[C@@H](C7=CC(=O)OC7)CC[C@]65O)C4)O[C@@H]3C)O[C@@H]2C)O[C@H](C)[C@H]1O[C@@H]1O[C@H](CO)[C@@H](O)[C@H](O)[C@H]1O [LANATOSIDE C]	> 30	–
Nc1nc(N)nc(Nc2ccc([As]3SCC(CO)S3)cc2)n1 (configuration not stated) [MELARSOPROL]	> 30	–
Cc1cc(CCN2CCN(c3cccc(Cl)c3)CC2)n[nH]1 [MEPIPRAZOLE]	> 30	–
CC[N+](C)(CC)CCOC(=O)C1c2ccccc2Oc2ccccc21 [METHANTHELINE]	> 30	–
CO[C@H]1[C@@H](O)C[C@H](O[C@H]2[C@@H](O)C[C@H](O[C@H]3[C@@H](O)C[C@H](O[C@H]4CC[C@@]5(C)[C@H](CC[C@@H]6[C@@H]5C[C@@H](O)[C@]5(C)[C@@H](C7=CC(=O)OC7)CC[C@]65O)C4)O[C@@H]3C)O[C@@H]2C)O[C@@H]1C [METILDIGOXIN]	> 30	–
CC1(C)S[C@@H]2[C@H](NC(=O)[C@H](NC(=O)N3CCN(S(C)(=O)=O)C3=O)c3ccccc3)C(=O)N2[C@H]1C(=O)O [MEZLOCILLIN]	> 30	–
CCC(=O)O[C@@H]1CC(=O)O[C@H](C)C/C=C/C=C/[C@H](OC(C)=O)[C@H](C)C[C@H](CC=O)[C@H](O[C@@H]2O[C@H](C)[C@@H](O[C@H]3C[C@@](C)(OC(C)=O)[C@@H](OC(=O)CC)[C@H](C)O3)[C@H](N(C)C)[C@H]2O)[C@H]1OC [MIOCAMYCIN]	> 30	–
CC(c1ccc(Cl)c(Cl)c1)N1N=C(N)CC1=O (configuration not stated) [MUZOLIMINE]	> 30	–
c1ccc2c(CC3=NCCN3)cccc2c1 [NAPHAZOLINE]	> 30	AC50 [7]: 0.043 µM; AC50 [8]: 0.14 µM
c1cc(CN2CCCNCCNCCCNCC2)ccc1CN1CCCNCCNCCCNCC1 [PLERIXAFOR]	> 30	–
CCCC(=O)O[C@H]1[C@H](C)O[C@@H](O[C@H]2[C@H](N(C)C)[C@@H](O)[C@H](O[C@H]3[C@@H](CC=O)C[C@@H](C)[C@@H](O)/C=C/C=C/C[C@@H](C)OC(=O)C[C@@H](O)[C@@H]3OC)O[C@@H]2C)C[C@@]1(C)OC(=O)CC [ROKITAMYCIN]	> 30	–
CCCCCCCCCCCCCCCCCC(=O)NCCCC[C@H](NC(=O)CC[C@@H](NC(=O)[C@H](C)NC(=O)[C@@H](C)O[C@H]1[C@H](O)[C@@H](CO)OC(O)[C@@H]1NC(C)=O)C(N)=O)C(=O)O (some centres not stated) [ROMURTIDE]	5.69	–
CCOC(=O)[C@H](CCc1ccccc1)N[C@H]1CS[C@H](c2cccs2)CN(CC(=O)O)C1=O [TEMOCAPRIL]	> 30	–
c1ccc2[nH]c(-c3cscn3)nc2c1 [THIABENDAZOLE]	> 30	–
C[C@@H]1C[C@H]2[C@@H]3CCC4=CC(=O)C=C[C@]4(C)C3=CC[C@]2(C)[C@H]1C(=O)CN1CCN(c2cc(N3CCCC3)nc(N3CCCC3)n2)CC1 [TIRILAZAD]	6.61	–

— ChEMBL document CHEMBL5291721, “A preclinical secondary pharmacology resource illuminates target-adverse drug reaction associations of marketed drugs” (Nat Commun, 2023)
